Converted amounts (≈) assume the structure as drawn.
Settings: buffer; pH 7.4; 200.0 µM

SMILES	solubility kinetic [µg/mL]
O=C(Nc1ccccc1-c1ccccc1)c1ccccc1	> 41
COc1ccc2cc(S(=O)(=O)N3CCCC(C)C3)ccc2c1 (stereo not given)	< 0.7
Cc1ccccc1OCCCC(=O)NC1CCCCC1	3.7 (≈ 13.4 µM)
CN(C)C(=O)Oc1ccc(Br)c2ccccc12	35 (≈ 119 µM)
N#C/C(=C(/O)c1ccc([N+](=O)[O-])cc1)c1nc2ccccc2[nH]1	< 0.2
CN(C)/C=C/C(=O)c1ccc(Oc2ncccn2)cc1	> 40.4
CC(=O)Nc1ccccc1OCC(=O)NCCC1=CCCCC1	> 47.5
Cc1cccc(NC(=O)CCCN2C(=O)C3CC=CCC3C2=O)c1 (stereo not given)	> 49
COc1cccc(-c2noc(CCC(=O)NCCc3ccccc3)n2)c1	44.3 (≈ 126 µM)
COc1cccc(NC(=O)COC(=O)C2=NN(c3ccccc3)C(=O)CC2)c1	> 57.2
CC(=O)c1ccc(NC(=O)c2cc3ccccc3o2)cc1	1 (≈ 3.58 µM)
Cn1c(-c2ccccc2)cnc1NCc1ccccc1	34.9 (≈ 133 µM)
O=C(O)c1cc(S(=O)(=O)N2CCCCC2)ccc1Cl	> 45.6
CC(=O)N1CCN(c2nc(N)c(C#N)c(CC#N)c2C#N)CC1	> 46.4
O=C(Cn1ccnc1[N+](=O)[O-])NCc1ccccc1	> 39
O=C(Nc1cccc(C(F)(F)F)c1)Nc1ccon1	9.9 (≈ 36.5 µM)
N#CCSc1nc2ccccc2c(=O)n1CC1CCCC1	0.8 (≈ 2.67 µM)
CC(=O)Oc1ccccc1/C=C/c1nc2ccccc2c(=O)o1	27.2 (≈ 88.5 µM)
Nc1nc2ccccc2n1CCOc1ccc(F)cc1	> 40.7
CCN(CC)CCN=Cc1c(O)n(Cc2ccccc2)c(=O)[nH]c1=O	> 51.7
O=C(NCCc1ccccc1)c1ccc(-c2ccc(F)cc2)o1	7.1 (≈ 23 µM)
CC(NC(=S)Nc1ccc(OC(F)F)c(Cl)c1)C(C)(C)C (stereo not given)	2.3 (≈ 6.83 µM)
Cc1cc(-c2nc(-c3ccncc3)no2)ccc1[N+](=O)[O-]	1.8 (≈ 6.38 µM)
Cc1nc(C)c(N)c(=O)[nH]1.Cl	> 26.3

SMILES	solubility kinetic [µg/mL]
CCOCCn1c(N2CCCC2)nc2c1c(=O)n(C)c(=O)n2C	> 48.2
Cc1ccccc1/C=C/c1nc2ccccc2c(=O)[nH]1	0.4 (≈ 1.52 µM)
CC(C)c1ccc(NS(=O)(=O)c2ccc(N3C(=O)CCC3=O)cc2)cc1	43.6 (≈ 117 µM)
Cc1ccc2oc(C(=O)Nc3cc(C)on3)c(C)c2c1	1.2 (≈ 4.44 µM)
O=C(Cc1ncc(C(F)(F)F)cc1Cl)NC1CC1	> 41.8
CN(C)Cc1c(-c2ccc(Cl)cc2)nc2ccccn12	40.4 (≈ 141 µM)
O=c1c2ccccc2cnn1Cc1n[nH]c(=S)n1-c1ccccc1F	> 53
COc1cccc(C(=O)NCc2ccco2)c1OC	> 39.2
CCOc1ccccc1OC(=O)CN1C(=O)c2ccccc2C1=O	16.2 (≈ 49.8 µM)
Cc1c(Cl)ccc2c(C(N)=O)cc(-c3ccccn3)nc12	0.2 (≈ 0.672 µM)
CCC1(CC)Cc2ccccc2-c2nc(CCl)[nH]c(=O)c21	1.2 (≈ 3.96 µM)
S=C1Cc2ccccc2C(c2ccc(Cl)cc2)N1 (stereo not given)	4.9 (≈ 17.9 µM)
COc1ccc(/C=C/C(=O)ONC2=NCCCCC2)cc1OC	> 47.8
COc1cc2c(cc1OC)CN(C(=O)c1ccc(Br)o1)CC2	> 54.9
COc1ccc(C(=O)N/C(=C\c2ccccc2)C(=O)Nc2ccccc2C(=O)O)cc1	> 62.5
Cc1cc(=O)c(C(=O)O)nn1-c1ccccc1C(F)(F)F	> 44.7
COc1cc(N)c(Cl)cc1C(=O)OCC(=O)NCC1CCCO1 (stereo not given)	> 51.4
Oc1ccc(C=NC2CCCCC2)cc1	16.6 (≈ 81.7 µM)
O=C(Cn1cc([N+](=O)[O-])ccc1=O)Nc1ccc2c(c1)OCO2	15.8 (≈ 49.8 µM)
O=C(O)CC(c1ccc(F)cc1F)N1Cc2ccccc2C1=O (stereo not given)	> 47.6
O=C1CN(c2nc3nonc3nc2N2CCCCC2)CCN1	45.2 (≈ 149 µM)
Cc1ccc(/C=C/C(=O)O)cc1S(=O)(=O)N1CCc2ccccc21	> 51.5
CCOC(=O)c1c(O)c2ccccc2n(CC)c1=O	> 39.2
CN(CC(=O)Nc1c(Cl)cccc1Cl)C(=O)Cc1ccsc1	> 53.6

SMILES	solubility kinetic [µg/mL]
Clc1cc(Br)ccc1NCc1cccnc1	24.7 (≈ 83 µM)
CCN1C(=O)C(O)(CC(=O)c2c(C)coc2C)c2ccccc21 (stereo not given)	> 47
CC(C)CCNc1nc2ccccc2nc1NS(=O)(=O)c1cccs1	7.3 (≈ 19.4 µM)
COc1ccc(Nc2ncnc3sccc23)cc1	36 (≈ 140 µM)
Cc1cccc(C(=O)NCCNC(=O)c2cccnc2)c1	37.5 (≈ 132 µM)
O=C(COC(=O)CNC(=O)C1CCCCC1)Nc1ccc(F)c([N+](=O)[O-])c1	> 57.2
Cc1ccc(C)c(SCC(=O)Nc2cccnc2Cl)c1	2.9 (≈ 9.45 µM)
Cc1cccc(CC2CC(=O)N(CCc3ccc4c(c3)OCO4)C2=O)c1 (stereo not given)	11.5 (≈ 32.7 µM)
CC(=O)c1c(C)nc(-c2ccccc2)nc1NC(=O)Cc1ccccc1	11 (≈ 31.8 µM)
O=C(CN1CCCc2ccccc21)NCCc1ccc(Cl)cc1	19.3 (≈ 58.7 µM)
Cc1ccc(S(=O)(=O)NCCC(=O)NC2CCCCCC2)cc1C	> 52.9
COC(=O)CC1C(=O)NCCN1C(=S)Nc1ccc(F)cc1 (stereo not given)	> 48.8
CCN(Cc1nc(-c2cccc(C)c2)no1)C(=O)c1ccco1	44.4 (≈ 143 µM)
Nc1nc(-c2ccc3c(c2)OCCO3)c(CC(=O)O)s1	41.1 (≈ 141 µM)
Cc1ccc(C(=O)NC(C)C2CC3CCC2C3)c(C)c1 (stereo not given)	29.9 (≈ 110 µM)
CN(C)Cc1ccccc1CCc1ccccc1.Cl	23.9
CN(Cc1nc(Cc2cccc(F)c2)no1)CC1CCOCC1	41.1 (≈ 129 µM)
CCCN1CCN(CC(=O)Nc2nnc(CC)s2)CC1	> 44.6
Cn1c(/C(C#N)=C/c2ccc(O)cc2)nc2ccccc21	5.5 (≈ 20 µM)
CCN(CC)S(=O)(=O)c1ccc(N2CCOCC2)c(NC(=O)c2sccc2C)c1	11.4 (≈ 26.1 µM)
C#Cc1ccc(CN2CCN(CCCc3ccccc3)C(CCO)C2)cc1 (stereo not given)	36.9 (≈ 102 µM)
O=Cc1cnc(N2CCCCC2)s1	27.6 (≈ 141 µM)
CN(C(=O)COC(=O)Cc1ccc(Cl)cc1)C1CCCCC1	> 48.6
CC(C)CN1C(=O)C(=O)N(CC(=O)c2ccc[nH]2)C1=O	40.7 (≈ 147 µM)

SMILES	solubility kinetic [µg/mL]
C[C@H](NC(=O)c1ccc(C(C)(C)C)cc1)C(=O)N1CCOCC1	> 47.8
CCc1ccc(NC(=O)C(=O)NCC2CCCO2)cc1 (stereo not given)	18.5 (≈ 66.9 µM)
CC(=O)Nc1ccc2sccc2c1	27.9 (≈ 146 µM)
O=C1CCN(S(=O)(=O)c2ccc(Br)cc2)CCN1	39.1 (≈ 117 µM)
COc1nc2ccccc2nc1N1CCN(C)CC1	38.4 (≈ 149 µM)
CCOc1ccc(Br)cc1S(=O)(=O)Nc1cccc(S(=O)(=O)Nc2ccccc2C(=O)O)c1	> 83.3
COc1ccc(NC(=O)c2nn(C)cc2[N+](=O)[O-])cc1	> 41.4
O=C(COC(=O)Cc1ccccc1)NCc1ccc2c(c1)OCO2	> 49.1
Cc1cccc(N2CN=C3SCC(=O)N3C2)c1	> 37.1
O=CN(c1ccccc1)c1ccc2ccccc2c1	14.2 (≈ 57.4 µM)
CCOC(=O)CN1C(=O)S/C(=C\c2ccc(-c3cccc(C(=O)O)c3C)o2)C1=O	56.9 (≈ 137 µM)
FC(F)(F)c1cccnc1Oc1ccc(C2=NCCS2)cc1	0.6 (≈ 1.85 µM)
CCOc1ccc(NC(=O)c2cc(OC)nc3ccccc23)cc1	0.6 (≈ 1.86 µM)
COc1ccc(C2OCC3(CO2)SC(=O)NC3=O)cc1OC (stereo not given)	44.8 (≈ 138 µM)
CCc1ccc(NC(=O)N[C@H](C(=O)O)C(C)CC)cc1 (stereo not given in full)	> 41.8
CC(=O)c1cccc(-n2c(CCC(=O)O)ccc2-c2ccc(C)cc2)c1	> 52.1
CC1(C)CC(=O)C=C(Nc2ccc3c(c2)CCC3)C1	35.8 (≈ 140 µM)
CC(Oc1ccc(Br)cc1Br)C(=O)Nc1cccnc1 (stereo not given)	7.2 (≈ 18 µM)
O=C(NC(=S)NCc1ccco1)c1ccccc1[N+](=O)[O-]	8.7 (≈ 28.5 µM)
FC(F)(F)c1ccc(-n2cn[nH]c2=S)cc1	> 36.8
NS(=O)(=O)c1ccc(NC(=O)COC(=O)C2CC2)cc1	> 44.7
Cc1ccc(C)c(C(=O)CSc2nc(N)cc(=O)[nH]2)c1	19.2 (≈ 66.4 µM)
COCCCNCC(O)C(F)(F)F (stereo not given)	24.4 (≈ 121 µM)
CC1CCCCN1C(=O)CCn1c(=O)oc2ccccc21 (stereo not given)	> 43.3

SMILES	solubility kinetic [µg/mL]
CC(C)CC(NC(N)=O)C(=O)NCc1ccc(Cl)cc1 (stereo not given)	35.3 (≈ 119 µM)
COc1ccccc1C1CCN(c2ccc(CO)cc2[N+](=O)[O-])CC1	7.8 (≈ 22.8 µM)
CCCCc1ncc(CN2CCN(Cc3ccc(C)cc3)C(CCO)C2)[nH]1 (stereo not given)	49.1 (≈ 133 µM)
COc1ccccc1OCCNC(=O)Nc1cc(F)c(F)cc1Cl	0.7 (≈ 1.96 µM)
COC(=O)c1c(NC(=O)C2CC2)sc(C(=O)Nc2ccccc2)c1C	1.7 (≈ 4.74 µM)
O=C(COC(=O)c1ccc(Cl)nc1)NCc1ccc(F)cc1	14.3 (≈ 44.3 µM)
CC1(C)Cc2nc3sc(C(N)=O)c(N)c3cc2CO1	> 41.6
C=CCNC(=O)[C@H]1N2C(=O)c3ccccc3C2SC1(C)C (stereo not given in full)	> 45.4
CC(C)Oc1ccccc1C1(c2ccccc2)NC(=O)NC1=O (stereo not given)	> 46.6
CCN1CCc2c(OCC(=O)N3CCc4ccccc43)cccc2C1=O	> 52.6
COc1ccc(S(=O)(=O)N2CC(=O)Nc3ccccc32)cc1	> 47.8
Cc1ccc(NC(=O)Cc2ccsc2)cc1S(=O)(=O)N1CCOCC1	> 57.1
COc1ccccc1COC(=O)N/C=C/c1ccco1	18.3 (≈ 67 µM)
Cc1csc2nc(O)c(C(=O)NCCCc3ccccc3)c(=O)n12	4.2 (≈ 12.2 µM)
O=C(NC(=S)N1CCN(c2ccccc2)CC1)c1c(F)cccc1F	> 54.2
O=C(CN1C(=O)C(=O)N(Cc2ccco2)C1=O)NC1CCCCC1	45.8 (≈ 137 µM)
COc1cc(CN2CCCCCC2)c([N+](=O)[O-])cc1OC	34.8 (≈ 118 µM)
C=CCOC(=O)Cn1cnc2c(sc3nc(C)cc(C)c32)c1=O	3.2 (≈ 9.72 µM)
O=C(c1ccco1)N1CCN(C(=S)NC2CC3CCC2C3)CC1 (stereo not given)	46.8 (≈ 140 µM)
CS(=O)(=O)N1Cc2ccccc2CC1C(=O)OCC(=O)NCc1ccccc1 (stereo not given)	> 60.4
Cc1c(C=O)c2ccccc2n1CC(=O)O	> 32.6
C=CCN=C1CCCc2c1[nH]c1ccc(C)cc21	10.3 (≈ 43.2 µM)
N/C(CCS(=O)(=O)c1ccc(Cl)cc1)=N\OC(=O)c1ccccc1Cl	41.6 (≈ 104 µM)
NC(=O)NC(=O)CSc1ccccc1	> 31.5

From PubChem BioAssay AID1996
